Source: patent US9732094B2, “Arylquinazolines” (Merck Patent GmbH, priority 2013, dated 2017)
Where two headings read alike, the source gives them in different places.

Key:
Kv11.1 (hERG) = Kv11.1 (hERG) (Homo sapiens (Human), UniProt Q12809); experiment: Kv11.1 (hERG) ion channel activity (patch clamp assay), HEK293 cells transfected with hERG gene
DNA-PK = DNA-PK (Homo sapiens (Human), UniProt P78527); experiment: DNA-PK assay (biochemical), flashplate 33P-ATP kinase assay
Method in brief: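 Reactions ran in streptavidin-coated flashplates and were halted by 200 mM EDTA, with a further 30 min at room temperature before saline washing.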

[1] = molecular target: DNA-PK phosphorylation at serine 2056 (Homo sapiens (Human), UniProt P78527); experiment: DNA-PK phosphorylation at serine 2056 (cellular), bleomycin-treated HCT116 cells, ELISA; assay type: cell-based; settings: read-out: IC50 pDNA-PK
Method in brief: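 HCT116 cells were treated with 10 μM bleomycin plus test compounds for six hours at 37 °C. Phospho-Ser2056 DNA-PK measured by chemiluminescent ELISA, normalised to total DNA-PKcs signal; DMSO control as blank.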

[2] = read-out: Ki [Kv1.11 hERG], hERG patch clamp assay (cells without asterisk)
[3] = cellular DNA-PK phosphorylation at serine 2056, HCT116
[4] = Ki [Kv1.11 hERG], patch clamp, HEK293 transfected with hERG gene
[5] = cellular, HCT116 cells, 10 μM bleomycin, six hours
[6] = read-out: Ki [Kv1.11 hERG], patch clamp, HEK293 transfected with hERG gene
[7] = Ki [Kv1.11 hERG], hERG patch clamp assay (cells without asterisk)
[8] = read-out: Ki [Kv1.11 hERG], Table 5

Kv11.1 (hERG), sequence (Q12809 whole entry): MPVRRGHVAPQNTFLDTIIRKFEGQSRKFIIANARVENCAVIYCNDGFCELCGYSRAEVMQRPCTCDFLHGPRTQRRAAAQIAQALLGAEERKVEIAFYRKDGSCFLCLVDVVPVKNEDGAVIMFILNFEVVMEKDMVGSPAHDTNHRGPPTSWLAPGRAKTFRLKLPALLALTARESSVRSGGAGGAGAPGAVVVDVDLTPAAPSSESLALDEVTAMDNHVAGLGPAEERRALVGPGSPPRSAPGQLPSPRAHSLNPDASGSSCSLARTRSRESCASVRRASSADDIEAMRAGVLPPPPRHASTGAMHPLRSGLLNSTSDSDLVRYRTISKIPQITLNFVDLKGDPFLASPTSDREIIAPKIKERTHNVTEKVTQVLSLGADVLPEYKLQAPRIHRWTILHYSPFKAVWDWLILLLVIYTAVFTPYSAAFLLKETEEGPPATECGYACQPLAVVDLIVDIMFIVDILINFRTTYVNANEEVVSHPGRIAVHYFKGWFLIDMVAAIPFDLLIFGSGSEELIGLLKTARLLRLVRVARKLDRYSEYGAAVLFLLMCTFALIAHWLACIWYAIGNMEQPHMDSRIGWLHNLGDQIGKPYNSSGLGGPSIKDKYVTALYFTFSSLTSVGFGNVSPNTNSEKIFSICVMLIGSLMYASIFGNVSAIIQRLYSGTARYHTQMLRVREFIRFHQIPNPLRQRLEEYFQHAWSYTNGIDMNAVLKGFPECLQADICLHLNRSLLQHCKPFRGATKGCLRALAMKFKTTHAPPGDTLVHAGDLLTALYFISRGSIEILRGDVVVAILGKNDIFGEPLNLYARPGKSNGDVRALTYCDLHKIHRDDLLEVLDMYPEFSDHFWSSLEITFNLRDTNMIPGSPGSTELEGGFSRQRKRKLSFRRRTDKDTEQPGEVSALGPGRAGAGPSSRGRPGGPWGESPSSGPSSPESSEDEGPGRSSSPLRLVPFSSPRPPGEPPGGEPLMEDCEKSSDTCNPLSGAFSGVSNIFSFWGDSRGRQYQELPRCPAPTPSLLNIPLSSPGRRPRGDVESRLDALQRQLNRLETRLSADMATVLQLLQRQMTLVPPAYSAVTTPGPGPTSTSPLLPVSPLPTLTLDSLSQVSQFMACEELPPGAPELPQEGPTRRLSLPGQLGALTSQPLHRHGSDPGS

| IC50 (DNA-PK; biochemical DNA-PK assay) [µM] | IC50 [1, 3] [µM] | IC50 (DNA-PK; enzymatic, 5 μM ATP) [µM] | IC50 [1, 5] [µM] | SMILES | other results |
| --- | --- | --- | --- | --- | --- |
| 0.003 to 0.007 | 5 to 10 | – | – | Nc1cncc(C(O)c2ccc(F)c(-c3ncnc4cc(N5CCOCC5)ccc34)c2)n1 (stereo not drawn) [Example 302, (6-Amino-pyrazin-2-yl)-[4-fluoro-3-(7-morpholin-4-yl-quinazolin-4-yl)-phenyl]methanol] | Ki (Kv11.1 (hERG); [2]): > 25 µM |
| 0.003 to 0.007 | 0.5 to 5 | – | – | COc1cncnc1C(O)c1cc(-c2ncnc3cc(N4CCOCC4)ccc23)ccc1Cl (stereo not drawn) [Example 413, [2-Chloro-5-(7-morpholin-4-yl-quinazolin-4-yl}-phenyl]-(5-methoxy-pyrimidin-4-yl)-methanol] | Ki (Kv11.1 (hERG); [7]): 15 to 25 µM |
| 0.003 to 0.007 | 0.5 to 5 | – | – | Cn1c(C(O)c2cc(-c3ncnc4cc(N5CCOCC5)ccc34)c(F)cc2F)cccc1=O (stereo not drawn) [Example 380, 6-{[2,4-Difluoro-5-(7-morpholin-4-yl-quinazolin-4-yl)-phenyl]hydroxy-methyl}-1-methyl-1H-pyridin-2-one] | Ki (Kv11.1 (hERG); [2]): > 25 µM |
| < 0.003 | < 0.5 | – | – | OC(c1ccc(F)c(-c2ncnc3cc(N4CCOCC4)ccc23)c1)c1nccc2ccoc12 (stereo not drawn) [Example 328, [4-Fluoro-3-(7-morpholin-4-yl-quinazolin-4-yl)-phenyl)furo[2,3-c]-pyridin-7-ylmethanol] | Ki (Kv11.1 (hERG); [2]): < 10 µM |
| < 0.003 | < 0.5 | – | – | OC(c1cc(-c2ncnc3cc(N4CCOCC4)ccc23)c(F)cc1F)c1nncc2sccc12 (stereo not drawn) [Example 341, [2,4-Difluoro-5-(7-morpholin-4-yl-quinazolin-4-yl)-phenyl]thieno[2,3-d}-pyridazin-4-yl-methanol] | Ki (Kv11.1 (hERG); [7]): 15 to 25 µM |
| 0.007 to 0.03 | 0.5 to 5 | – | – | Cn1ncc2c(C(O)c3cc(-c4ncnc5cc(N6CCOCC6)ccc45)ccc3F)ncnc21 (stereo not drawn) [Example 391, [2-Fluoro-5-(7-morpholin-4-yl-quinazolin-4-yl)-phenyl]-(1-methyl-1H-pyrazolo[3,4-d}-pyrimidin-4-yl)-methanol] | Ki (Kv11.1 (hERG); [7]): 15 to 25 µM |
| < 0.003 | < 0.5 | – | – | OC(c1cc(-c2ncnc3cc(N4CCOCC4)ccc23)c(F)cc1F)c1nncc2ccsc12 (stereo not drawn) [Example 342, [2,4-Difluoro-5-(7-morpholin-4-yl-quinazolin-4-yl)-phenyl]thieno[2,3-d}-pyridazin-7-yl-methanol] | Ki (Kv11.1 (hERG); [2]): > 25 µM |
| 0.003 to 0.007 | 0.5 to 5 | – | – | NC(=O)C(c1ccc(F)c(-c2ncnc3cc(N4CCOCC4)ccc23)c1)c1cncc(F)c1Cl (stereo not drawn) [Example 322, 2-(4-Chloro-5-fluoro-pyridin-3-yl)-2-[4-fluoro-3-(7-morpholin-4-yl-quinazolin-4-yl)-phenyl]acetamide] | Ki (Kv11.1 (hERG); [7]): 10 to 15 µM |
| 0.007 to 0.03 | 10 to 30 | – | – | COC(c1ccc(F)c(-c2ncnc3cc(N4CCOCC4)ccc23)c1)c1nccnc1C (stereo not drawn) [Example 353, 4-{2-Fluoro-5-[methoxy-(3-methyl-pyrazin-2-yl)methyl]-phenyl}-7-morpholin-4-ylquinazoline] | Ki (Kv11.1 (hERG); [2]): > 25 µM |
| 0.003 to 0.007 | < 0.5 | – | – | Cn1ncc2c(C(O)c3ccc(F)c(-c4ncnc5cc(N6CCOCC6)ccc45)c3)ncnc21 (stereo not drawn) [Example 404, [4-Fluoro-3-(7-morpholin-4-yl-quinazolin-4-yl)-phenyl]-(1-methyl-1H-pyrazolo[3,4-d}-pyrimidin-4-yl)-methanol] | Ki (Kv11.1 (hERG); [2]): > 25 µM |

More lines, now with the values behind:

| SMILES | IC50 (DNA-PK; biochemical DNA-PK assay) [µM] | IC50 [1, 3] [µM] | IC50 (DNA-PK; enzymatic, 5 μM ATP) [µM] | IC50 [1, 5] [µM] | other results |
| --- | --- | --- | --- | --- | --- |
| C#Cc1nc(-c2cc(C(O)c3nccs3)ccc2F)c2ccc(N3CCOCC3)cc2n1 (stereo not drawn) [Example 216, [3-(2-Ethynyl-7-morpholin-4-yl-quinazolin-4-yl)-4-fluorophenyl]-thiazol-2-yl-methanol] | – | – | < 0.003 | 10 to 30 | Ki (Kv11.1 (hERG); [4]): 10 to 15 µM |
| OC(c1ccc2nccn2n1)c1cc(-c2ncnc3cc(N4CCOCC4)ccc23)c(F)cc1Cl (stereo not drawn) [Example 63, [2-Chloro-4-fluoro-5-(7-morpholin-4-yl-quinazolin-4-yl)phenyl]-imidazo[1,2-b]pyridazin-6-ylmethanol] | – | – | < 0.003 | 0.5 to 5 | Ki (Kv11.1 (hERG); [6]): 10 to 15 µM |
| OC(c1ccc(F)c(-c2ncnc3cc(N4CCOCC4)ccc23)c1)c1ncccc1Cl (stereo not drawn) [Example 42, (3-Chloro-pyridin-2-yl)-[4-fluoro-3-(7-morpholin-4-yl-quinazolin-4-yl)phenyl]-methanol] | – | – | < 0.003 | < 0.5 | Ki (Kv11.1 (hERG); [4]): 15 to 25 µM |
| COc1nnc(C(O)c2cc(-c3ncnc4cc(N5CCOCC5)ccc34)c(F)cc2Cl)c2ccncc12 (stereo not drawn) [Example 40, [2-Chloro-4-fluoro-5-(7-morpholin-4-yl-quinazolin-4-yl)phenyl]-(4-methoxypyrido-[3,4-d}pyridazin-1-yl)-methanol] | – | – | 0.007 to 0.03 | 0.5 to 5 | Ki (Kv11.1 (hERG); [4]): 10 to 15 µM |
| O=c1[nH]ccnc1C(O)c1ccc(F)c(-c2ncnc3cc(N4CCOCC4)ccc23)c1 (stereo not drawn) [Example 5, 3-{[4-Fluoro-3-(7-morpholin-4-yl-quinazolin-4-yl)phenyl]-hydroxymethyl]-1H-pyrazin-2-one] | – | – | > 0.03 | 10 to 30 | Ki (Kv11.1 (hERG); [4]): 15 to 25 µM |
| COc1cncnc1C(O)c1ccc(F)c(-c2ncnc3cc(N4CCOCC4)ccc23)c1 (stereo not drawn) [Example 87, [4-Fluoro-3-(7-morpholin-4-yl-quinazolin-4-yl)-phenyl]-(5-methoxy-pyrimidin-4-yl)-methanol] | – | – | < 0.003 | < 0.5 | Ki (Kv11.1 (hERG); [4]): 15 to 25 µM |
| COc1ccc([C@@H](O)c2ccc(F)c(-c3ncnc4cc(N5CCOCC5)ccc34)c2)nn1 [Example 72, (S)-[4-Fluoro-3-(7-morpholin-4-yl-quinazolin-4-yl)phenyl]-(6-methoxypyridazin-3-yl)methanol] | – | – | < 0.003 | 0.5 to 5 | Ki (Kv11.1 (hERG); [6]): > 25 µM |
| COc1nccnc1C(O)c1ccc(F)c(-c2ncnc3cc(N4CCOCC4)ccc23)c1 (stereo not drawn) [Example 16, [4-Fluoro-3-(7-morpholin-4-yl-quinazolin-4-yl)phenyl]-(3-methoxy-pyrazin-2-yl)methanol] | – | – | 0.007 to 0.03 | 0.5 to 5 | Ki (Kv11.1 (hERG); [6]): > 25 µM |
| OC(c1cnc(F)c(-c2ncnc3cc(N4CCOCC4)ccc23)c1)c1nccs1 (stereo not drawn) [Example 188, [6-Fluoro-5-(7-morpholin-4-yl-quinazolin-4-yl)-pyridin-3-yl]thiazol-2-ylmethanol] | – | – | – | – | Ki (Kv11.1 (hERG); [8]): > 25 µM; IC50 (DNA-PK; Table 5): < 0.003 µM; IC50 ([1]; Table 5, HCT116 cells): 5 to 10 µM |
| COc1ccc(C(O)c2cc(-c3ncnc4cc(N5CCOCC5)ccc34)ccc2F)nn1 (stereo not drawn) [Example 357, [2-Fluoro-5-(7-morpholin-4-yl-quinazolin-4-yl)-phenyl]-(6-methoxy-pyridazin-3-yl)-methanol] | 0.003 to 0.007 | 0.5 to 5 | – | – | Ki (Kv11.1 (hERG); [2]): > 25 µM |
| OCc1csc([C@H](O)c2cc(-c3ncnc4cc(N5CCOCC5)ccc34)c(F)cc2Cl)n1 [Example 186, (R)-[2-Chloro-4-fluoro-5-(7-morpholin-4-yl-quinazolin-4-yl)-phenyl]-(4-hydroxymethyl-thiazol-2-yl)-methanol] | – | – | – | – | Ki (Kv11.1 (hERG); [8]): < 10 µM; IC50 (DNA-PK; Table 5): 0.007 to 0.03 µM; IC50 ([1]; Table 5, HCT116 cells): 5 to 10 µM |
| OC(c1cccc(-c2ncnc3cc(N4CCOCC4)ccc23)c1)c1nccs1 (stereo not drawn) [Example 148, [3-(7-Morpholin-4-ylquinazolin-4-yl)-phenyl]thiazol-2-yl-methanol] | – | – | – | – | Ki (Kv11.1 (hERG); Ki [Kv1.11 hERG], Table 5): 10 to 15 µM; IC50 (DNA-PK; Table 5): 0.007 to 0.03 µM; IC50 ([1]; Table 5, HCT116 cells): 10 to 30 µM |
| COc1ccc([C@H](O)c2ccc(F)c(-c3ncnc4cc(N5CCOCC5)ccc34)c2)nn1 [Example 71, (R)-[4-Fluoro-3-(7-morpholin-4-yl-quinazolin-4-yl)phenyl]-(6-methoxypyridazin-3-yl)methanol] | – | – | < 0.003 | 0.5 to 5 | Ki (Kv11.1 (hERG); [6]): > 25 µM |
| COc1ccc(C(C(N)=O)c2cc(-c3ncnc4cc(N5CCOCC5)ccc34)c(F)cc2Cl)nn1 (stereo not drawn) [Example 325, 2-[2-Chloro-4-f1uoro-5-(7-morpholin-4-yl-quinazolin-4-yl)-phenyl]-2-(6-methoxypyridazin-3-yl)acetamide] | > 0.03 | 10 to 30 | – | – | Ki (Kv11.1 (hERG); [7]): 15 to 25 µM |
| [2H]C1([2H])OC([2H])([2H])C([2H])([2H])N(c2ccc3c(-c4cc(C(O)c5nccnc5OC)c(Cl)cc4F)ncnc3c2)C1([2H])[2H] (stereo not drawn) [Example 241, [2-Chloro-4-fluoro-5-[7-(2,2,3,3,5,5,6,6-octadeuteriomorpholin-4-yl)quinazolin-4-yl]phenyl]-(3-methoxypyrazin-2-yl)methanol] | < 0.003 | < 0.5 | – | – | Ki (Kv11.1 (hERG); [7]): 10 to 15 µM |
| OCCNc1nccnc1C(O)c1ccc(F)c(-c2ncnc3cc(N4CCOCC4)ccc23)c1 (stereo not drawn) [Example 106, 2-(3-{[4-fluoro-3-(7-morpholin-4-yl-quinazolin-4-yl)-phenyl]hydroxy-methyl}pyrazin-2-yl-amino)ethanol] | – | – | 0.007 to 0.03 | 5 to 10 | Ki (Kv11.1 (hERG); [4]): 15 to 25 µM |
| NC(=O)C(c1ccc(F)c(-c2ncnc3cc(N4CCOCC4)ccc23)c1)c1c(F)cncc1F (stereo not drawn) [Example 321, 2-(3,5-Difluoro-pyridin-4-yl)-2-[4-fluoro-3-(7-morpholin-4-yl-quinazolin-4-yl)-phenyl]acetamide] | 0.007 to 0.03 | 0.5 to 5 | – | – | Ki (Kv11.1 (hERG); [7]): 15 to 25 µM |
| OC(c1ccc(F)c(-c2ncnc3cc(C4=CCOCC4)ccc23)c1)c1nccs1 (stereo not drawn) [Example 139, {3-[7-(3,6-Dihydro-2H-pyran-4-yl)-quinazolin-4-yl]-4-fluoro-phenyl}-thiazol-2-ylmethanol] | – | – | – | – | Ki (Kv11.1 (hERG); [8]): > 25 µM; IC50 (DNA-PK; Table 5): 0.007 to 0.03 µM; IC50 ([1]; Table 5, HCT116 cells): 10 to 30 µM |
